Measured values from patent publication US8278072B1, “Method for synthesis of sialylated products using reversible sialylation” (Health Research, Inc., priority 2007, dated 2012).
Where a name gives a salt, the structure may show the parent alone. Read-outs that look alike come from different tables or passages of the source.

Legend:
Format in all cases: biochemical
[1] = biological target: T1, ST6Gal-I (Rattus norvegicus, UniProt P13721); experiment: CMP-NeuAc / UMP-NeuAc formed by reverse sialylation as sialyl donor, ST6Gal-I activity; details: acceptor 2.5 mM Galβ1,4GlcNAcβ-O-Bn; donor [3] 0.0625 mM, 8 mM 5′-CMP or 5′-UMP, ST3Gal-II plus ST6GalI, 4 h
T1 construct: purchased Calbiochem
T1 sequence (P13721 1-403): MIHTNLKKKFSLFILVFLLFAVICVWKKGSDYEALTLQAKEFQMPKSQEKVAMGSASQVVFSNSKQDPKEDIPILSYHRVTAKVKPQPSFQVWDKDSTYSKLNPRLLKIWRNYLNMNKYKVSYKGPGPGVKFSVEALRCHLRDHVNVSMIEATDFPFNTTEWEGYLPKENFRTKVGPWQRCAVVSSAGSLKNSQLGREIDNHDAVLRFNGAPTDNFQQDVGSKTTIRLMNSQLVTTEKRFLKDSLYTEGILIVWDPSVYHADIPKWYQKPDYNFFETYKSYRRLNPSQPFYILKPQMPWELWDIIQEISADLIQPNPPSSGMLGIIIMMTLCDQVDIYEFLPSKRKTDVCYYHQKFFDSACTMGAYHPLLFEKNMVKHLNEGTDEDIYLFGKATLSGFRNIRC

[2] = biological target: T2, ST3Gal-III (Rattus norvegicus, UniProt Q02734); experiment: CMP-NeuAc / UMP-NeuAc formed by reverse sialylation as sialyl donor, ST3Gal-III activity; details: acceptor 2.5 mM 4-O-MeGalβ1,4GlcNAcβ-O-Bn; donor [3] 0.0625 mM, 8 mM 5′-CMP or 5′-UMP, ST3Gal-II plus ST3Gal-III, 4 h
T2 construct: purchased Calbiochem
T2 sequence (Q02734 1-374): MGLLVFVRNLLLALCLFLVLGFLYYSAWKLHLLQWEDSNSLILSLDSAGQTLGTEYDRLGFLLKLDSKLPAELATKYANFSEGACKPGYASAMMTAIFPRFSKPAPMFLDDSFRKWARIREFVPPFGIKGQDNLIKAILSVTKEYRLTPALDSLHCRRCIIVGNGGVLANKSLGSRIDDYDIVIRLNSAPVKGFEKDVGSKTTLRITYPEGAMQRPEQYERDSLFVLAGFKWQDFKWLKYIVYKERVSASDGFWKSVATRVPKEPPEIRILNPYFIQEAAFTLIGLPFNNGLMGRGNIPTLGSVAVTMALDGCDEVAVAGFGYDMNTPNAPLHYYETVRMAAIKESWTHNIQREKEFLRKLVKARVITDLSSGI

[3] = biological target: T3, ST3Gal-II (Rattus norvegicus, UniProt Q11205); experiment: CMP-NeuAc / UMP-NeuAc formed by reverse sialylation as sialyl donor, ST3Gal-II activity; details: acceptor 2.5 mM D-Fucβ1,3GalNAcα-O-Bn; donor [3] 0.0625 mM, 8 mM 5′-CMP or 5′-UMP, 4 h, blank subtracted
T3 construct: purchased Calbiochem
T3 sequence (Q11205 1-350): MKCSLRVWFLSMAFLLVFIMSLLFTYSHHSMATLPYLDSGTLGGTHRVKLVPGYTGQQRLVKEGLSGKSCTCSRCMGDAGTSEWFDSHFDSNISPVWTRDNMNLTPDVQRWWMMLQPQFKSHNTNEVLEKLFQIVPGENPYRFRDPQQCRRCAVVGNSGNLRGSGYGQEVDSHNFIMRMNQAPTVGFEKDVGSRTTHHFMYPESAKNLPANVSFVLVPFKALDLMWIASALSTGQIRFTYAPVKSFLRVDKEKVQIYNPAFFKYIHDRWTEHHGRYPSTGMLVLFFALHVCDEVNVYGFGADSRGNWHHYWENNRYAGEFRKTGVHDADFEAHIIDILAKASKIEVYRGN

[4] = biological target: T4, ST3Gal III (Cloned rat liver) (Rattus norvegicus, UniProt Q02734); experiment: Forward (direct) sialyltransferase activity, ST3Gal-III
T4 construct: purchased Calbiochem
T4 sequence (Q02734 1-374): T2 sequence (Q02734 1-374)
Method: (§1) FIG. 5. Effect of 5′-nucleotides on direct sialyltransferase activity (panel a) and reverse sialylation (panel b). a. Varying concentrations of 5′-CDP or 5′-CMP were added to 100 mM acceptor (specified below), 0.15 mM CMP-[9-^3H]NeuAc and either ST3Gal-II (0.2 mU), ST3Gal-III (0.5 mU) or ST6Gal-I (0.2 mU) for 4 h at 37° C. Products were separated using Sep-Pak C18 method. ST3Gal-III activity was measured using acceptor 4-O-MeGalβ1,4GlcNAcβ-O-Bn in the presence of 5′-CDP (●) and 5′-CMP (◯). ST6Gal-I activity was measured using Gal β1,4GlcNAcβ-O-Bn in the presence of 5′-CDP (▴) and 5′-CMP (Δ). ST3Gal-II using D-Fucβ1,3GalNAcα-O-Bn in the presence of 5′-CDP (▪) and 5′-CMP (□). b) Reverse sialylation by ST3Gal-II was measured in reaction mixtures containing 0.2 mM [9-^3H] [3], 7 mM 5′-CMP, ST3Gal-II (2 mU), D-Fucβ1,3GalNAcα-OBn (3.0 mM) and varying doses of either 5′-CDP (▴), 5′-UMP (◯) or 2-deoxy 5′-CMP (●) for 4 hours at 37° C. Reaction product ([9-^3H]NeuAcα2,3DFucβ1,3 GalNAcα-O-Bn) was isolated using Sep-Pak C18 method. In some runs, where was absent, the amount of CMP-NeuAc produced was quantified using the Dowex-1 Formate method in the presence of varying doses of 5′-CDP (▪).
(§2) Besides pH other distinctions were also observed between forward and reverse sialylation. In this regard, citrate ions tended to inhibit forward sialylation but not reverse sialylation activity (Table V). For these studies, the effect of citrate on the forward sialylation activity of ST3Gal-I, ST3Gal-II, ST3Gal-III and ST6Gal-I was examined. Reverse sialylation activity of ST3Gal-II was also measured in terms of: i) the formation of CMP-NeuAc from 5′-CMP; and ii) the transfer of NeuAc from this newly synthesized CMP-NeuAc to another O-glycan. From the data (Table V), it is evident that citrate inhibits the direct sialylation activity of all the enzymes mentioned above. However, both the synthesis of CMP-[9-^3H]NeuAc from 5′-CMP as well as the synthesis of [9-^3H]NeuAcα2,3D-Fucβ1,3 GalNAcα-O-Bn using the newly formed CMP-[9-^3H]NeuAc through reverse sialylation of ST3Gal-II was not inhibited by citrate.
(§3) The effect of 5′-nucleotides on forward sialylation (FIG. 5a) and reverse sialylation (FIG. 5b) were examined. […] The overall formation of [9-^3H]NeuAcα2,3D-Fucβ1,3 GalNAcα-O-Bn by the two-step reverse sialylation process, however, was inhibited by 5′-CDP and this is consistent with the finding that 5′-CDP inhibits forward sialylation in the second step.

[5] = biological target: T5, ST6Gal I (Cloned rat liver) (Rattus norvegicus, UniProt P13721); experiment: Forward (direct) sialyltransferase activity, ST6Gal-I
T5 construct: purchased Calbiochem
T5 sequence (P13721 1-403): T1 sequence (P13721 1-403)
Method: as §1, §2, §3

[6] = biological target: T6, ST3Gal II (Cloned rat liver) (Rattus norvegicus, UniProt Q11205); experiment: Forward (direct) sialyltransferase activity, ST3Gal-II
T6 construct: purchased Calbiochem
T6 sequence (Q11205 1-350): T3 sequence (Q11205 1-350)
Method: as §1, §2, §3

[7] = biological target: T7, ST3Gal I (Cloned Human) (Homo sapiens, UniProt Q11201); experiment: Forward (direct) sialyltransferase activity, ST3Gal I
T7 sequence (Q11201 1-340): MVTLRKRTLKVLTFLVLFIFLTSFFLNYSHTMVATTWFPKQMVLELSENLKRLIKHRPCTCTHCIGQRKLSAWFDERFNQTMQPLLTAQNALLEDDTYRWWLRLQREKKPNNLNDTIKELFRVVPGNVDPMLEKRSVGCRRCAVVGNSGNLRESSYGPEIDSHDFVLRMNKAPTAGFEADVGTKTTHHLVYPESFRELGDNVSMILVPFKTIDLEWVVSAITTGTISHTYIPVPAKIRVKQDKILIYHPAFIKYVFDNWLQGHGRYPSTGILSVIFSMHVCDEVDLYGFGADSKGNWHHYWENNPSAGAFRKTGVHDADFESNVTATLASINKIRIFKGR
Method: as §2

[8] = biological target: T3, ST3Gal-II; experiment: Reverse sialylation by ST3Gal-II in presence of citrate or 5′-nucleotides; details: for inhibition at 40000 µM: 40 mM citrate, donor [3]
Method: as §1, §2, §3

[9] = acceptor Galβ1,3GalNAcβ-O-Al 1.0 mM, 0.15 mM CMP-[9-3H]NeuAc, 4 hours

Row | Incorporation of [9-3H]NeuAc into the acceptor, ST6Gal-I activity [1] [CPM] | Incorporation of [9-3H]NeuAc into the acceptor, ST3Gal-III activity [2] [CPM] | Incorporation of [9-3H]NeuAc into the acceptor, ST3Gal-II activity [3] [CPM] | Structure (SMILES) | inhibition at 40000 µM ([4]; 40 mM citrate, acceptor 4-O-MeGalβ1,4GlcNAcβ-O-Bn) [%] | Activity (Incorporation of [9-3H]NeuAc) with citrate (40 mM) ([4]; acceptor 4-O-MeGalβ1,4GlcNAcβ-O-Bn 1.0 mM, 0.15 mM CMP-[9-3H]NeuAc, 4 hours) [CPM] | inhibition at 40000 µM ([5]; 40 mM citrate, acceptor Galβ1,4GlcNAcβ-O-Bn) [%] | Activity (Incorporation of [9-3H]NeuAc) with citrate (40 mM) ([5]; acceptor Galβ1,4GlcNAcβ-O-Bn 1.0 mM, 0.15 mM CMP-[9-3H]NeuAc, 4 hours) [CPM] | inhibition at 40000 µM ([6]; 40 mM citrate, acceptor Galβ1,3GalNAcβ-O-Al) [%] | Activity (Incorporation of [9-3H]NeuAc) with citrate (40 mM) [6, 9] [CPM] | inhibition at 40000 µM [7] [%] | Activity (Incorporation of [9-3H]NeuAc) with citrate (40 mM) [7, 9] [CPM] | inhibition at 40000 µM ([8]; read-out: Inhibition of synthesis of CMP-[9-3H]NeuAc from 5′-CMP) [%] | inhibition at 40000 µM ([8]; read-out: Inhibition of synthesis of [9-3H]NeuAcα2,3D-Fucβ1,3GalNAcα-OBn through 5′-CMP) [%] | Activity (Incorporation of [9-3H]NeuAc) with citrate (40 mM): synthesis of [9-3H]NeuAcα2,3D-Fucβ1,3GalNAcα-OBn through 5′-CMP ([8]; donor […] [3], 20 mM 5′-CMP, 3.0 mM D-Fucβ1,3GalNAcα-OBn, 4 hours) [CPM] | Activity (Incorporation of [9-3H]NeuAc) with citrate (40 mM): synthesis of CMP-[9-3H]NeuAc from 5′-CMP ([8]; donor […] [3], 20 mM 5′-CMP, 5.0 mU ST3Gal-II, 4 hours) [CPM]
1 | 182 | 3804 | 1243 | CC(=O)NC1C(O)CC(OP(=O)(O)OCC2OC(n3ccc(=O)[nH]c3=O)C(O)C2O)(C(=O)O)OC1C(O)C(O)CO (stereo not drawn) [UMP-NeuAc] | – | – | – | – | – | – | – | – | – | – | – | –
2 | – | – | – | O=C(O)CC(O)(CC(=O)O)C(=O)O [citrate, sodium citrate] | 64.3 | 39115 | 92.4 | 7471 | 48.2 | 33025 | 98.3 | 402 | 0 | 0 | 59131 | 48800
